Measurements as given in patent publication US6514997B2, “Antipicornaviral compounds and compositions, their pharmaceutical uses, and materials for their synthesis” (Agouron Pharmaceuticals, Inc., priority 1999, dated 2003).
Where two headings read alike, the source gives them in different places.

What was measured:
[1] = tested on: strains of human rhinovirus (HRV); assay: Antirhinoviral H1-HeLa cell culture assay (XTT cell protection, EC50), other HRV strains; format: cell-based, human rhinovirus in H1-HeLa cells; details: read-out: EC50
Procedure, shortened: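 H1-HeLa cells infected, or mock-infected, were incubated with compounds for two days. Cell protection measured by XTT/PMS formazan absorbance at 450/650 nm; TI taken as CC50 divided by EC50.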

H1-HeLa cells = assay: Cytotoxicity (CC50) in mock-infected H1-HeLa cells, XTT dye reduction; format: cell-based, human
Procedure, shortened: (§1)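 H1-HeLa cells mock-infected, read by XTT/PMS formazan at 450/650 nm.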

[2] = as above; format: cell-based, human; details: human; for CC50 at 1 day: CVB3
Procedure, shortened: as §1

HRV-14 = assay: Antirhinoviral H1-HeLa cell culture assay (XTT cell protection, EC50), HRV-14; format: cell-based, human rhinovirus (HRV) serotype-14 in H1-HeLa cells
Procedure, shortened: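 H1-HeLa cells were infected with HRV-14 at m.o.i. 0.13, or mock-infected, and incubated with compound for two days. Cell protection was read by XTT/PMS formazan absorbance at 450/650 nm to give EC50. CC50 came from mock-infected cells, and TI = CC50/EC50.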

[3] = biological target: T1, Recombinant rhinovirus 3C protease, serotype 14 (Human rhinovirus 14, UniProt P03303); assay: Inhibition of rhinovirus 3C protease (FRET assay, kobs/[I]), serotype 14; format: biochemical; details: pH 7.6; HRV-14 3C protease; read-out: kobs/[I] (3C protease inhibition activity)
T1 construct: Recombinant rhinovirus 3C proteases; made in house
T1 sequence (P03303 1538-1719): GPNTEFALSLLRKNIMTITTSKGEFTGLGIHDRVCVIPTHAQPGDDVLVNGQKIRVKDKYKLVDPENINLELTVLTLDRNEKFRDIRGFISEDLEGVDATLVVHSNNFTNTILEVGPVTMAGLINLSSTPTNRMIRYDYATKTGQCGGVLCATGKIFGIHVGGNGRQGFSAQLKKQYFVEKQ
Procedure, shortened: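 Enzyme-start FRET assay with ~1 μM DABCYL/EDANS peptide substrate and 50-100 nM recombinant protease in 50 mM tris pH 7.6, 1 mM EDTA, 2% DMSO. Cleavage followed as fluorescence increase; kobs/[I] derived from progress curves.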

[4] = tested on: Echovirus type 11 (ECHO 11); assay: Anti-echoviral cell culture assay (XTT, EC50), ECHO 11; format: cell-based, echovirus 11 in MRC-5 cells; details: Enterovirus B, MRC5
Protocol: (§2) Anti-Echoviral and Anti-Enteroviral Cell Culture Assays
(§3) Echovirus type 11 (ECHO 11) was purchased from ATCC (Rockville, Md.). Virus stocks were propagated and antiviral assays were performed in MRC-5 cells (ATCC). Cells were grown in minimal essential medium with 10% fetal bovine serum (Life Technologies, Gaithersburg, Md.). The ability of the compounds of this invention to protect cells against ECHO 11 infection was measured by the XTT dye reduction method (Weislow et al., J. Natl. Cancer Inst. (1989), vol. 81, 577-586). MRC-5 cells were infected with ECHO 11 at an m.o.i. of 0.003 or 0.004, respectively, or mock-infected with medium only. Infected or uninfected cells were added at 1×10^4 cells per well and incubated with appropriate concentrations of compound. Four days later, XTT/PMS was added to test plates, and the amount of formazan produced was quantified spectrophotometrically at 450/650 nm. […] The therapeutic index (TI) was calculated by dividing the CC50 by the EC50. Activity of the compounds against enterovirus type 70 (EV 70) may be measured by the same assay as described above in this section. Enterovirus type 70 (EV 70) may be obtained from the American Type Culture Collection ATCC (Rockville, Md.).

[5] = tested on: Coxsackievirus type A-21 (CAV-21); assay: Anticoxsackieviral cell culture assay (XTT, EC50), CAV-21; format: cell-based, coxsackievirus A-21 in H1-HeLa cells
Protocol: (§4) Anticoxsackieviral Cell Culture Assay:
(§5) Coxsackievirus types A-21 (CAV-21) and B3 (CVB3) were purchased from American Type Culture Collection (ATCC, Rockville, Md.). Virus stocks were propagated and antiviral assays were performed in H1-HeLa cells (ATCC). Cells were grown in minimal essential medium with 10% fetal bovine serum (Life Technologies, Gaithersburg, Md.). The ability of the compounds of this invention to protect cells against either CAV-21 or CVB3 infection was measured by the XTT dye reduction method. This method is described in Weislow et al., J. Natl. Cancer Inst. (1989), vol. 81, 577-586. H1-HeLa cells were infected with CAV-21 or CVB3 at a multiplicity of infection (m.o.i.) of 0.025 or 0.075, respectively, or mock-infected with medium only. H1-HeLa cells were plated at 4×10^4 cells per well in a 96-well plate and incubated with appropriate concentrations of the test compound. One day (CVB3) or two days (CAV-21) later, XTT/PMS was added to test plates and the amount of formazan produced was quantified spectrophotometrically at 450/650 nm. […] The therapeutic index (TI) was calculated by dividing the CC50 by the EC50.

[6] = tested on: Coxsackievirus type B3 (CVB3); assay: Anticoxsackieviral cell culture assay (XTT, EC50), CVB3; format: cell-based, coxsackievirus B3 in H1-HeLa cells
Protocol: as §4, §5

[7] = tested on: enterovirus type 70 (EV 70); assay: Anti-enteroviral cell culture assay (XTT, EC50), EV 70; format: cell-based, enterovirus 70 in MRC-5 cells; details: Enterovirus D, MRC5; ENT-70, MRC-5 cells
Protocol: as §2, §3

MRC-5 cells = assay: Cytotoxicity (CC50) in uninfected MRC-5 cells, XTT dye reduction; format: cell-based, human; details: ENT-70 row
Protocol: as §3

[8] = as above; format: cell-based, human; details: human, uninfected (mock-infected) MRC-5 cells; ECHO-11 (EV-11) row
Protocol: as §3

[9] = Human rhinovirus sp., HRV3, H1-HeLa, HRV-3
[10] = Human rhinovirus sp., HRV9, H1-HeLa, HRV-9
[11] = Human rhinovirus sp., HRV10, H1-HeLa, HRV-10
[12] = Human rhinovirus sp., HRV13, H1-HeLa, HRV-13
[13] = Human rhinovirus sp., HRV16, H1-HeLa, HRV-16
[14] = Human rhinovirus sp., HRV25, H1-HeLa, HRV-25
[15] = Human rhinovirus sp., HRV39, H1-HeLa, HRV-39
[16] = Human rhinovirus sp., HRV78, H1-HeLa, HRV-78
[17] = H1-HeLa cells, mock-infected, HRV-14
[18] = mock-infected (uninfected) H1-HeLa cells, CAV-21
[19] = mock-infected (uninfected) H1-HeLa cells
[20] = CVB3, H1-HeLa cells, read-out: EC50
[21] = Rhinovirus B, HRV14, H1-HeLa, HRV-14, read-out: EC50

Row | SMILES | EC50 [1, 9] | EC50 [1, 10] | EC50 [1, 12] | EC50 [1, 13] | EC50 [1, 15] | EC50 [1, 16] | CC50 (H1-HeLa cells; HRV-3) | CC50 (H1-HeLa cells; HRV-9) | CC50 (H1-HeLa cells; HRV-13) | CC50 (H1-HeLa cells; HRV-16) | CC50 (H1-HeLa cells; HRV-39) | CC50 (H1-HeLa cells; HRV-78) | CC50 at 2 days [2, 17] | EC50 (HRV-14; Rhinovirus B, HRV14, H1-HeLa) | kinact/KI [3] | further results
1 | Cc1cc(C(=O)Nc2cccn([C@@H](Cc3ccc(F)c(F)c3)C(=O)N[C@H](/C=C/C(=O)OC3CCC3)C[C@@H]3CCNC3=O)c2=O)no1 [Compound 58, trans-(2′S,3″″″S,4S)-4-[3′-(3″,4″-Difluorophenyl)-2′-(3′″-{[1″″-(5′″″-methylisoxazol-3′″″-yl)methanoyl]amino}-2″″-oxo-2″″H-pyridin-1″″-yl)propanoylamino]-5-(2″″″-oxopyrrolidin-3″″″-yl)pent-2-enoic Acid Cyclobutyl Ester] | 0.005 µM | 0.047 µM | 0.024 µM | 0.014 µM | 0.02 µM | 0.014 µM | > 10 µM | > 10 µM | > 10 µM | > 10 µM | > 10 µM | > 10 µM | > 10 µM | 0.003 µM | 2.2e+06 M⁻¹ s⁻¹ | EC50 ([1]; H1-HeLa, HRV-1A): 0.014 µM; EC50 ([1]; H1-HeLa, HRV-2): 0.013 µM; EC50 ([1]; H1-HeLa, HRV-23): 0.008 µM; EC50 ([1]; Human rhinovirus sp., H1-HeLa, HRV-Hanks): 0.021 µM; EC50 [1, 11]: 0.011 µM; EC50 ([1]; Human rhinovirus sp., HRV11, H1-HeLa, HRV-11): 0.005 µM; EC50 ([1]; Human rhinovirus sp., HRV19, H1-HeLa, HRV-19): 0.017 µM; EC50 [1, 14]: 0.016 µM; CC50 (H1-HeLa cells; HRV-1A): > 10 µM; CC50 (H1-HeLa cells; HRV-2): > 10 µM; CC50 (H1-HeLa cells; HRV-10): > 10 µM; CC50 (H1-HeLa cells; HRV-11): > 10 µM; CC50 (H1-HeLa cells; HRV-19): > 10 µM; CC50 (H1-HeLa cells; HRV-23): > 10 µM; CC50 (H1-HeLa cells; HRV-25): > 10 µM; CC50 (H1-HeLa cells; HRV-Hanks): > 10 µM
2 | CC[C@@H](C(=O)N[C@H](/C=C/C(=O)OC1CCCCC1)C[C@@H]1CCNC1=O)n1cccc(NC(=O)c2cc(C)on2)c1=O [Compound 60, trans-(2′S,3′″″S,4S)-4-[2′-(3″-{[1′″-(5″″-Methylisoxazol-3″″-yl)methanoyl]amino}-2′″oxo-2′″H-pyridin-1′″-yl)butanoylamino]-5-(2′″″-oxopyrrolidin-3′″″-yl)pent-2-enoic Acid Cyclohexyl Ester] |  | 0.516 µM |  |  |  |  |  | > 10 µM |  |  |  |  | > 10 µM | 0.173 µM | 23000 M⁻¹ s⁻¹ | EC50 ([1]; H1-HeLa, HRV-1A): 0.558 µM; EC50 [1, 11]: 0.368 µM; EC50 [1, 14]: 0.251 µM; CC50 (H1-HeLa cells; HRV-1A): > 10 µM; CC50 (H1-HeLa cells; HRV-10): > 10 µM; CC50 (H1-HeLa cells; HRV-25): > 10 µM
3 | Cc1cc(C(=O)Nc2cccn([C@@H](Cc3ccccc3)C(=O)N[C@H](/C=C/C(=O)OC(C)C)C[C@@H]3CCNC3=O)c2=O)no1 [Compound 66, trans-(2′S,3′″″S,4S)-4-[2′-(3″-{[1′″-(5″″-Methylisoxazol-3″″-yl)methanoyl]amino}-2′″-oxo-2′″H-pyridin-1′″-yl)-3″-phenylpropanoylamino]-5-(2′″″-oxopyrrolidin-3′″″-yl)pent-2-enoic Acid Isopropyl Ester] | 0.056 µM | 0.196 µM | 0.057 µM | 0.011 µM | 0.022 µM | 0.015 µM | > 10 µM | > 10 µM | > 10 µM | > 10 µM | > 10 µM | > 10 µM | > 10 µM | 0.155 µM | 480000 M⁻¹ s⁻¹ | 
4 | Cc1cc(C(=O)Nc2cccn([C@@H](Cc3ccc(F)cc3)C(=O)N[C@H](/C=C/C(=O)OC(C)C)C[C@@H]3CCNC3=O)c2=O)no1 [Compound 67, trans-(2′S,3″″″S)-4-[3′-(4″-Fluorophenyl)-2′-(3′″-{[1″″-(5′″″-methylisoxazol-3′″″-yl)methanoyl]amino}-2″″-oxo-2″″H-pyridin-1″″-yl)propanoylamino]-5-(2″″″-oxopyrrolidin-3″″″-yl)pent-2-enoic Acid Isopropyl Ester] | 0.019 µM | 0.162 µM | 0.162 µM | 0.033 µM | 0.038 µM | 0.048 µM | > 10 µM | > 10 µM | > 10 µM | > 10 µM | > 10 µM | > 10 µM | > 10 µM | 0.057 µM | 462000 M⁻¹ s⁻¹ | 
5 | CCOC(=O)c1ccc(OCCC2CCN(c3ccc(C)nn3)CC2)cc1 [Pirodavir, reference compound] |  |  |  |  |  |  |  |  |  |  |  |  | > 10 µM |  |  | CC50 at 2 days [2, 18]: > 100 µM; CC50 at 1 day [2, 19]: > 100 µM; EC50 ([4]; ECHO-11 (also printed EV-11), MRC-5 cells, read-out: EC50): 3.7 µM; EC50 ([5]; Coxsackievirus, CAV-21, H1-HeLa cells, read-out: EC50): > 100 µM; EC50 [6, 20]: > 100 µM; EC50 (HRV-14; [21]): 0.03 µM; EC50 [7]: 0.06 µM; CC50 (MRC-5 cells): > 10 µM; CC50 at 4 days [8]: > 10 µM
6 | Cc1cc(CCCOc2c(C)cc(-c3noc(C(F)(F)F)n3)cc2C)on1 [Pleconaril, reference compound] |  |  |  |  |  |  |  |  |  |  |  |  | > 10 µM |  |  | CC50 at 2 days [2, 18]: > 10 µM; CC50 at 1 day [2, 19]: > 10 µM; EC50 [4]: 0.16 µM; EC50 ([5]; Coxsackievirus, H1-HeLa): 0.09 µM; EC50 ([6]; H1-HeLa): > 10 µM; EC50 (HRV-14; [21]): 0.01 µM; CC50 at 4 days [8]: > 10 µM
7 | Cc1cc(CCCCCOc2c(Cl)cc(C3=NCCO3)cc2Cl)on1 [WIN 54954, reference compound] |  |  |  |  |  |  |  |  |  |  |  |  |  |  |  | CC50 (H1-HeLa cells; CAV-21): > 100 µM; CC50 (H1-HeLa cells; CVB3): > 100 µM; CC50 (H1-HeLa cells; HRV-14): > 63 µM; EC50 ([5]; CAV-21, H1-HeLa cells, read-out: EC50): > 100 µM; EC50 [6, 20]: > 100 µM; EC50 (HRV-14; HRV-14, read-out: EC50): 2.13 µM
